Kd data for 3 compounds are collected here from paper PMC12174747, “Ligand Screening and Discovery Using Cocktail Soaking and Automated Microcrystal Electron Diffraction” (Chemmedchem, 2025).

Test [1] addresses T1, thermolysin (Bacillus thermoproteolyticus, UniProt P00800).
T1 construct: gene npr
T1 sequence (P00800 233-548): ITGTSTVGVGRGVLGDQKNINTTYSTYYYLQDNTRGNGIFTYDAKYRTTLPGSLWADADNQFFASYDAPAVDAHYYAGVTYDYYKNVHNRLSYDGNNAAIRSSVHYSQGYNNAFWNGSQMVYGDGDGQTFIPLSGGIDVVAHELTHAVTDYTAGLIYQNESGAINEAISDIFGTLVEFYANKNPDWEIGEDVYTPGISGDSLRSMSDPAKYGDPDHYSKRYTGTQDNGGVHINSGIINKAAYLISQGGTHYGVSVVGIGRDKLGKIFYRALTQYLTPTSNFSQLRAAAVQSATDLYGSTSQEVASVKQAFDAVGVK
In words: MicroED crystal structure (cocktail and individual soaking) and microscale thermophoresis. It counts as binding. In general terms: MST reads how a fluorescent partner responds to local heating, with and without ligand.

Test [2] has as its target T2, proteinase K (Parengyodontium album, UniProt P06873).
T2 construct: gene PROK
The description is as above. It counts as binding.

Where a name gives a salt, the structure may show the parent alone. Read-outs that look alike come from different tables or passages of the source.

T2 sequence (P06873 106-384): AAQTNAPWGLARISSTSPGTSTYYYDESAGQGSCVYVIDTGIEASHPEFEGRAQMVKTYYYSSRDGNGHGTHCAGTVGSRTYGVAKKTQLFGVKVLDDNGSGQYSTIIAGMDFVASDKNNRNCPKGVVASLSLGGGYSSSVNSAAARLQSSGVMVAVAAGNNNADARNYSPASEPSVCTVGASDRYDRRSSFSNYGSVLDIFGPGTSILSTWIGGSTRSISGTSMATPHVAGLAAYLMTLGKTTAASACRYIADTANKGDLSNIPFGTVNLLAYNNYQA

In general, Kd refers to the free concentration of one partner at which half of the binding sites on the other are occupied at equilibrium, for simple one-to-one binding. For the compound `O=C(O)CNC(=O)C(CS)Cc1ccccc1` (stereo not drawn) [compound 2, thiorphan], the Kd in test [1] (read-out: Kd) amounted to 4 µM. As to `CC(C)C[C@H](NP(=O)(O)O[C@@H]1O[C@@H](C)[C@H](O)[C@@H](O)[C@H]1O)C(=O)N[C@@H](Cc1c[nH]c2ccccc12)C(=O)O` [compound 1, phosphoramidon disodium salt], binding in test [1] was characterised by a dissociation constant (Kd) of 0.345 µM. For “benzenesulfonyl fluoride hydrochloride [compound 4]”, the dissociation constant Kd in test [2] came out at 260 µM.
